Laboratory results as given in PubChem BioAssay (NCI).
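Protocol summary: plate cells (96-well), add compound at 5 concentrations, incubate 48 h, interpolate endpoints linearly. TGI: total growth inhibition.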

Legend:
Assay in all cases: NCI tumour cell line growth inhibition, 48 h
SF-268 CNS = tested on: SF-268 CNS
NCI-H23 lung = tested on: NCI-H23 lung
HCT-116 colon = tested on: HCT-116 colon
DMS 273 small cell lung = tested on: DMS 273 small cell lung
LOX IMVI melanoma = tested on: LOX IMVI melanoma
786-0 renal = tested on: 786-0 renal
NCI-H460 lung = tested on: NCI-H460 lung
SNB-19 CNS = tested on: SNB-19 CNS
SNB-78 CNS = tested on: SNB-78 CNS
RXF-631 renal = tested on: RXF-631 renal
MOLT-4 leukemia = tested on: MOLT-4 leukemia
TK-10 renal = tested on: TK-10 renal
CCRF-CEM leukemia = tested on: CCRF-CEM leukemia
SNB-75 CNS = tested on: SNB-75 CNS
RPMI-8226 leukemia = tested on: RPMI-8226 leukemia
SF-539 CNS = tested on: SF-539 CNS
A549 NSCLC = tested on: A549 NSCLC
KM20L2 colon = tested on: KM20L2 colon
OVCAR-5 ovarian = tested on: OVCAR-5 ovarian
LXFL 529 NSCLC = tested on: LXFL 529 NSCLC
M14 melanoma = tested on: M14 melanoma
SK-MEL-28 melanoma = tested on: SK-MEL-28 melanoma
U251 CNS = tested on: U251 CNS
UACC-62 melanoma = tested on: UACC-62 melanoma
OVCAR-8 ovarian = tested on: OVCAR-8 ovarian
SF-295 CNS = tested on: SF-295 CNS
SN12C renal = tested on: SN12C renal
MALME-3M melanoma = tested on: MALME-3M melanoma
K-562 leukemia = tested on: K-562 leukemia
KM12 colon = tested on: KM12 colon
IGROV1 ovarian = tested on: IGROV1 ovarian
HOP-62 NSCLC = tested on: HOP-62 NSCLC
CAKI-1 renal = tested on: CAKI-1 renal
RXF 393 renal = tested on: RXF 393 renal
SK-MEL-5 melanoma = tested on: SK-MEL-5 melanoma
UACC-257 melanoma = tested on: UACC-257 melanoma
HT29 colon = tested on: HT29 colon
HOP-18 NSCLC = tested on: HOP-18 NSCLC
ACHN renal = tested on: ACHN renal
A498 renal = tested on: A498 renal
HOP-92 NSCLC = tested on: HOP-92 NSCLC
UO-31 renal = tested on: UO-31 renal
SW-620 colon = tested on: SW-620 colon
DLD-1 colon = tested on: DLD-1 colon
M19-MEL melanoma = tested on: M19-MEL melanoma
COLO 205 colon = tested on: COLO 205 colon
HL-60(TB) leukemia = tested on: HL-60(TB) leukemia
XF 498 CNS = tested on: XF 498 CNS
OVCAR-4 ovarian = tested on: OVCAR-4 ovarian
EKVX NSCLC = tested on: EKVX NSCLC
SR leukemia = tested on: SR leukemia
HCT-15 colon = tested on: HCT-15 colon
SK-MEL-2 melanoma = tested on: SK-MEL-2 melanoma
SK-OV-3 ovarian = tested on: SK-OV-3 ovarian
DMS 114 small cell lung = tested on: DMS 114 small cell lung
NCI-H522 lung = tested on: NCI-H522 lung
NCI-H226 lung = tested on: NCI-H226 lung
HCC-2998 colon = tested on: HCC-2998 colon

Measured: TGI

COC(=O)C(C(=O)C(=O)Nc1ccc(C)cc1C)c1nc2ccc([N+](=O)[O-])cc2[nH]c1=O (stereo unspecified)
not listed: HCC-2998 colon
> 100 µM: all other assays above

CN(Cc1ccccc1)c1nc(=[N+](C)C)ss1
not listed: COLO 205 colon
> 100 µM: all other assays above

CC(=O)NNc1nc(C)c(C(/C=C/c2ccc(Cl)cc2)=N/NC(=S)NN)s1
not listed: HCC-2998 colon
> 100 µM: all other assays above
